Experimental data: patent US20230365592A1 (Agios Pharmaceuticals, Inc., priority 2022, published 2023)

target: T1, human PAH with the R408W mutation (Homo sapiens, UniProt P00439, R408W); assay: Cell Based Phenylalanine Flux Assay; conditions: A375 cells expressing R408W PAH; 24 hrs with compound, then 20 µM sepiapterin and 800 µM 13C9,15N-Phenylalanine for 4 hours; 13C-Tyrosine by LC-MS; average where tested multiple times; read-out: AC50;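 note: after compound treatment, cells received sepiapterin plus isotope-labelled Phenylalanine for 4 hours, then labelled Tyrosine in the medium was quantified, 10-point 2-fold dilution series run in duplicate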
T1 construct: expressed in transfected cells
T1 sequence (P00439 1-452 R408W): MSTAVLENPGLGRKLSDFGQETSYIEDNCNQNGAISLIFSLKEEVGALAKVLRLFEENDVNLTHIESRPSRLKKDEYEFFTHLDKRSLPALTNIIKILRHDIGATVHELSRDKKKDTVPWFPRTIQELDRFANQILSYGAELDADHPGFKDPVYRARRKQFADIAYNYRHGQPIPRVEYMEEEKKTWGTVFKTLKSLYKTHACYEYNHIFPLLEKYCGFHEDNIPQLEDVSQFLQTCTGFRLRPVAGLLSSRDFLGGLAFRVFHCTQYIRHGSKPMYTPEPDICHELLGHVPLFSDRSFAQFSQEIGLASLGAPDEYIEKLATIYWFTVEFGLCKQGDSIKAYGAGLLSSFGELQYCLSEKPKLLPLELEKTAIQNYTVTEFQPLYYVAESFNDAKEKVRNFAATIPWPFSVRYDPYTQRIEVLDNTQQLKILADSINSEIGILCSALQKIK

AC50 | SMILES
> 5 µM | Cc1cccc2cc(C3c4nc[nH]c4CCN3c3nnc(-c4cnccn4)o3)nn12 (centres unmarked)
1 to 5 µM | Cc1n[nH]cc1-c1nnc(C(=O)N2CCc3[nH]cnc3C2c2cc3c(C)cccn3n2)o1 (centres unmarked)
1 to 5 µM | CC(C)c1cccn2nc(C3c4nc[nH]c4CCN3c3nnc(C(C)(C)F)o3)cc12 (centres unmarked)
1 to 5 µM | Cc1c(C2c3nc[nH]c3CCN2C(=O)c2nnc(-c3ccn(C)n3)o2)nn2ccccc12 (centres unmarked)
1 to 5 µM | FC(F)(F)c1cccc2cc(C3c4nc[nH]c4CCN3c3nnc(-c4cnccn4)o3)nn12 (centres unmarked)
1 to 5 µM | O=C(c1cnn2cc(N3CCOCC3)ccc12)N1CCc2[nH]cnc2C1c1cc2ccccn2n1 (centres unmarked)
1 to 5 µM | Cc1cccn2nc(C3c4nc[nH]c4CCN3C(=O)c3cnc(C(C)(C)O)o3)cc12 (centres unmarked)
1 to 5 µM | Cc1ccc2c(C(=O)N3CCc4[nH]cnc4C3c3cc4cccc(C(F)F)n4n3)cnn2c1 (centres unmarked)
1 to 5 µM | CC(C)(O)c1nnc(C(=O)N2CCc3[nH]cnc3C2c2cc3ccccn3n2)o1 (centres unmarked)
1 to 5 µM | Cn1cc(-c2nnc(N3CCc4[nH]cnc4[C@H]3c3cc4c(F)cccn4n3)o2)cn1 (single isomer, unassigned)
1 to 5 µM | FC(F)c1nnc(N2CCc3[nH]cnc3C2c2cc3cccc(C(F)(F)F)n3n2)o1 (centres unmarked)
1 to 5 µM | Fc1cccnc1-c1nnc(N2CCc3[nH]cnc3C2c2cc3c(C(F)F)cccn3n2)o1 (centres unmarked)

SMILES | AC50
COCc1ccc2c(C(=O)N3CCc4[nH]cnc4[C@H]3c3cc4cccc(F)n4n3)cnn2c1 (single isomer, unassigned) | 1 to 5 µM
O=C(c1nnc(-c2ncccn2)o1)N1CCc2[nH]cnc2[C@H]1c1cc2c(C3CC3)cccn2n1 (single isomer, unassigned) | > 5 µM
Cc1cccc2cc([C@H]3c4nc[nH]c4CCN3C(=O)c3ncnn3C)nn12 (single isomer, unassigned) | > 5 µM

same assay, conditions: A375 cells expressing human PAH R408W; 24 hrs compound incubation; 13C-Tyrosine by LC-MS; average where tested multiple times; read-out: AC50

AC50 | SMILES
1 to 5 µM | Cc1ccc2cc([C@@H]3c4nc[nH]c4CCN3C(=O)c3nc(C(F)F)nn3C)nn2c1 [Example 2403, (S)-(3-(difluoromethyl)-1-methyl-1H-1,2,4-triazol-5-yl)(4-(6-methylpyrazolo[1,5-a]pyridin-2-yl)-6,7-dihydro-1H-imidazo[4,5-c]pyridin-5(4H)-yl)methanone]
1 to 5 µM | O=C(c1ocnc1C(F)F)N1CCc2[nH]cnc2[C@@H]1c1cc2cc(F)ccn2n1 [Example 2401, (R)-(4-(difluoromethyl)oxazol-5-yl)(4-(5-fluoropyrazolo[1,5-a]pyridin-2-yl)-6,7-dihydro-1H-imidazo[4,5-c]pyridin-5(4H)-yl)methanone]
< 0.5 µM | Cc1cccn2nc([C@@H]3c4nc[nH]c4CCN3c3nnc(C(F)(F)F)o3)cc12 [Example 1809, (S)-2-(4-(4-methylpyrazolo[1,5-a]pyridin-2-yl)-6,7-dihydro-1H-imidazo[4,5-c]pyridin-5(4H)-yl)-5-(trifluoromethyl)-1,3,4-oxadiazole]

same assay, conditions: A375 cells expressing human R408W PAH; 24 hrs compound incubation; 13C-Tyrosine by LC-MS; average where tested multiple times; read-out: AC50

SMILES | AC50
Cc1nc([C@@H](C)O)oc1C(=O)N1CCc2[nH]cnc2[C@H]1c1cc2c(C)cccn2n1 [Example 752, (2-((R)-1-hydroxyethyl)-4-methyloxazol-5-yl)((S)-4-(4-methylpyrazolo[1,5-a]pyridin-2-yl)-6,7-dihydro-1H-imidazo[4,5-c]pyridin-5(4H)-yl)methanone] | < 0.5 µM
Cc1cccn2nc([C@H]3c4nc[nH]c4CCN3C(=O)c3nnc(-c4ccc(C(F)(F)F)cn4)o3)cc12 [Example 872, (R)-(4-(4-methylpyrazolo[1,5-a]pyridin-2-yl)-6,7-dihydro-1H-imidazo[4,5-c]pyridin-5(4H)-yl)(5-(5-(trifluoromethyl)pyridin-2-yl)-1,3,4-oxadiazol-2-yl)methanone] | > 5 µM
O=C(c1nnc(-c2ccn(C(F)F)n2)o1)N1CCc2[nH]cnc2[C@@H]1c1cc2c(F)cccn2n1 [Example 824, (R)-(5-(1-(difluoromethyl)-1H-pyrazol-3-yl)-1,3,4-oxadiazol-2-yl)(4-(4-fluoropyrazolo[1,5-a]pyridin-2-yl)-6,7-dihydro-1H-imidazo[4,5-c]pyridin-5(4H)-yl)methanone] | > 5 µM
CC(C)(O)c1nc(C(F)(F)F)c(C(=O)N2CCc3[nH]cnc3[C@H]2c2cc3ccccn3n2)o1 [Example 628, (S)-(2-(2-hydroxypropan-2-yl)-4-(trifluoromethyl)oxazol-5-yl)(4-(pyrazolo[1,5-a]pyridin-2-yl)-6,7-dihydro-1H-imidazo[4,5-c)pyridin-5(4H)-yl)methanone] | < 0.5 µM
Cc1ccc(-c2nnc(C(=O)N3CCc4[nH]cnc4[C@H]3c3cc4ccccn4n3)o2)nc1 [Example 673, (S)-(5-(5-methylpyridin-2-yl)-1,3,4-oxadiazol-2-yl)(4-(pyrazolo[1,5-a]pyridin-2-yl)-6,7-dihydro-1H-imidazo[4,5-c]pyridin-5(4H)-yl)methanone] | 0.5 to 1 µM
C[C@@H](O)c1nc(C(F)F)c(C(=O)N2CCc3[nH]cnc3[C@H]2c2cc3c(F)cccn3n2)o1 [Example 710, (4-(difluoromethyl)-2-((R)-1-hydroxyethyl)oxazol-5-yl)((s)-4-(4-fluoropyrazolo[1,5-a]pyridin-2-yl)-6,7-dihydro-1H-imidazo[4,5-c]pyridin-5(4H)-yl)methanone] | < 0.5 µM

Next, values leading:

AC50 | SMILES
< 0.5 µM | CC(C)c1nnc(C(=O)N2CCc3[nH]cnc3[C@H]2c2cc3c(F)cccn3n2)o1 [Example 1452, (S)-(4-(4-fluoropyrazolo[1,5-a]pyridin-2-yl)-6,7-dihydro-1H-imidazo[4,5-c]pyridin-5(4H)-yl)(5-isopropyl-1,3,4-oxadiazol-2-yl)methanone]
< 0.5 µM | Cc1nc(C(=O)N2CCc3[nH]cnc3[C@H]2c2cc3c(C)cccn3n2)n(C)n1 [Example 916, (S)-(1,3-dimethyl-1H-1,2,4-triazol-5-yl)(4-(4-methylpyrazolo[1,5-a]pyridin-2-yl)-6,7-dihydro-1H-imidazo[4,5-c]pyridin-5(4H)-yl)methanone]
> 5 µM | Cc1ncccc1-c1nnc(C(=O)N2CCc3[nH]cnc3[C@@H]2c2cc3cccc(F)n3n2)o1 [Example 1495, (R)-(4-(7-fluoropyrazolo[1,5-a]pyridin-2-yl)-6,7-dihydro-1H-imidazo[4,5-c]pyridin-5(4H)-yl)(5-(2-methylpyridin-3-yl)-1,3,4-oxadiazol-2-yl)methanone]
< 0.5 µM | O=C(c1nnc(-c2ccn(C(F)F)n2)o1)N1CCc2[nH]cnc2[C@H]1c1cc2cccc(C(F)F)n2n1 [Example 1442, (S)-(5-(1-(difluoromethyl)-1H-pyrazol-3-yl)-1,3,4-oxadiazol-2-yl)(4-(7-(difluoromethyl)pyrazolo[1,5-a]pyridin-2-yl)-6,7-dihydro-1H-imidazo[4,5-c]pyridin-5(4H)-yl)methanone]
< 0.5 µM | O=C(c1ccnn1C(F)F)N1CCc2[nH]cnc2[C@H]1c1cc2cc(C(F)(F)F)ccn2n1 [Example 1132, (S)-(1-(difluoromethyl)-1H-pyrazol-5-yl)(4-(5-(trifluoromethyl)pyrazolo[1,5-a]pyridin-2-yl)-6,7-dihydro-1H-imidazo[4,5-c]pyridin-5(4H)-yl)methanone]
1 to 5 µM | O=C(c1ocnc1C(F)F)N1CCc2[nH]cnc2[C@@H]1c1cc2cccc(F)n2n1 [Example 1203, (R)-(4-(difluoromethyl)oxazol-5-yl)(4-(7-fluoropyrazolo[1,5-a]pyridin-2-yl)-6,7-dihydro-1H-imidazo[4,5-c]pyridin-5(4H)-yl)methanone]
> 5 µM | Cc1cccn2nc([C@H]3c4nc[nH]c4CCN3C(=O)c3nnc(-c4cnn(C5CCC5)c4)o3)cc12 [Example 1039, (R)-(5-(1-cyclobutyl-1H-pyrazol-4-yl)-1,3,4-oxadiazol-2-yl)(4-(4-methylpyrazolo[1,5-a]pyridin-2-yl)-6,7-dihydro-1H-imidazo[4,5-c]pyridin-5(4H)-yl)methanone]
< 0.5 µM | Cn1ccc(-c2nnc(C(=O)N3CCc4[nH]cnc4[C@H]3c3cc4c(C(F)F)cccn4n3)o2)n1 [Example 1352, (S)-(4-(4-(difluoromethyl)pyrazolo[1,5-a]pyridin-2-yl)-6,7-dihydro-1H-imidazo[4,5-c]pyridin-5(4H)-yl)(5-(1-methyl-1H-pyrazol-3-yl)-1,3,4-oxadiazol-2-yl)methanone]
< 0.5 µM | COc1ccc(-c2nnc(C(=O)N3CCc4[nH]cnc4[C@H]3c3cc4c(C(F)(F)F)cccn4n3)o2)nc1 [Example 932, (S)-(5-(5-methoxypyridin-2-yl)-1,3,4-oxadiazol-2-yl)(4-(4-(trifluoromethyl)pyrazolo[1,5-a]pyridin-2-yl)-6,7-dihydro-1H-imidazo[4,5-c]pyridin-5(4H)-yl)methanone]
0.5 to 1 µM | Cc1cccn2nc([C@@H]3c4nc[nH]c4CCN3C(=O)c3nnc(-c4cnn(C(F)(F)F)c4)o3)cc12 [Example 1472, (S)-(4-(4-methylpyrazolo[1,5-a]pyridin-2-yl)-6,7-dihydro-1H-imidazo[4,5-c]pyridin-5(4H)-yl)(5-(1-(trifluoromethyl)-1H-pyrazol-4-yl)-1,3,4-oxadiazol-2-yl)methanone]

same assay, conditions: AC50, A375 cells expressing human PAH R408W; 24 hrs compound incubation; 13C-Tyrosine by LC-MS; average where tested multiple times

SMILES | AC50
CC(C)c1cccn2nc([C@@H]3c4nc[nH]c4CCN3c3nnc(C4CC(F)(F)C4)o3)cc12 [Example 2519, (S)-2-(3,3-difluorocyclobutyl)-5-(4-(4-isopropylpyrazolo[1,5-a]pyridin-2-yl)-1,4,6,7-tetrahydro-5H-imidazo[4,5-c]pyridin-5-yl)-1,3,4-oxadiazole] | 1 to 5 µM
